We go through 18 molecules from patent US20250082630A1, “METHODS OF TREATING BRAIN TUMOURS AND NEUROBLASTOMAS” (AstraZeneca AB, priority 2021, published 2025).

pIC50: −log10 of the molar value. Some results are limits rather than exact numbers.

One data set deals with PARP3 (Homo sapiens (Human), UniProt Q9Y6F1). As to the kind of experiment: PARP fluorescence anisotropy binding assay, PARP3. In general terms: Polarisation of emitted light reports the rotation of a fluorescent probe.
A further data set concerns the target PARP6 (Homo sapiens (Human), UniProt Q2NL67). The experiment in a line: PARP fluorescence anisotropy binding assay, PARP6. The protocol: Recombinant full length GST tagged PARP6 protein was diluted to 160 nM with 50 mM Tris pH 8, 0.001% Triton X100, 10 mM MgCl2, 150 mM NaCl and incubated for four hours with an equivalent volume of 6 nM fluorescent probe diluted with 50 mM Tris pH 8, 0.001% Triton X100, 10 mM MgCI2, 150 mM NaCl. The final DMSO concentration of the probe was kept below 1% (v/v).
Fluorescence anisotropy of the probe when bound to the proteins was measured using a BMG Pherastar FSX® in the presence of test compounds or solvent control and the effect on anisotropy determined. % inhibition values for different test compound concentrations were calculated and fitted to a four parameter logistic plot in order to determine the IC50 value. Where necessary, the compound K, can be determined from the IC50 value using a Munson Rodbard equation defined in Anal Biochem. 1980 Sep. 1; 107(1):220-39 and is based on the known KD of the probe binding to the relevant PARP protein

Another data set concerns the target PARP2 (Homo sapiens (Human), UniProt Q9UGN5). As to the kind of experiment: PARP fluorescence anisotropy binding assay, PARP2. The protocol:
Recombinant full length PARP2 protein was diluted to 6 nM with 50 mM Tris pH 8, 0.001% Triton X100, 10 mM MgCl2, 150 mM NaCl and incubated for four hours with an equivalent volume of 2 nM fluorescent probe diluted with 50 mM Tris pH 8, 0.001% Triton X100, 10 mM MgCl2, 150 mM NaCl. The final DMSO concentration of the probe was kept below 1% (v/v).
Fluorescence anisotropy of the probe when bound to the proteins was measured using a BMG Pherastar FSX® in the presence of test compounds or solvent control and the effect on anisotropy determined. % inhibition values for different test compound concentrations were calculated and fitted to a four parameter logistic plot in order to determine the IC50 value.

The next data set deals with PARP1 (Homo sapiens (Human), UniProt P09874). As to the kind of experiment: PARP fluorescence anisotropy binding assay, PARP1.
The next data set concerns the target PARP5a (Homo sapiens (Human), UniProt O95271). The experiment in a line: PARP fluorescence anisotropy binding assay, PARP5a.
The next data set concerns MDR1 and BCRP. As to the kind of experiment: In vitro human transporter efflux (MDCK-MDR1-BCRP). Conditions: human, pH 7.4.

For orientation: pIC50 means the negative decadic logarithm of the IC50, by convention in mol/L. As usually defined, the efflux ratio is the permeability from basolateral to apical divided by that in the opposite direction, in the common usage.

Chain of PARP6 (Q2NL67 whole entry): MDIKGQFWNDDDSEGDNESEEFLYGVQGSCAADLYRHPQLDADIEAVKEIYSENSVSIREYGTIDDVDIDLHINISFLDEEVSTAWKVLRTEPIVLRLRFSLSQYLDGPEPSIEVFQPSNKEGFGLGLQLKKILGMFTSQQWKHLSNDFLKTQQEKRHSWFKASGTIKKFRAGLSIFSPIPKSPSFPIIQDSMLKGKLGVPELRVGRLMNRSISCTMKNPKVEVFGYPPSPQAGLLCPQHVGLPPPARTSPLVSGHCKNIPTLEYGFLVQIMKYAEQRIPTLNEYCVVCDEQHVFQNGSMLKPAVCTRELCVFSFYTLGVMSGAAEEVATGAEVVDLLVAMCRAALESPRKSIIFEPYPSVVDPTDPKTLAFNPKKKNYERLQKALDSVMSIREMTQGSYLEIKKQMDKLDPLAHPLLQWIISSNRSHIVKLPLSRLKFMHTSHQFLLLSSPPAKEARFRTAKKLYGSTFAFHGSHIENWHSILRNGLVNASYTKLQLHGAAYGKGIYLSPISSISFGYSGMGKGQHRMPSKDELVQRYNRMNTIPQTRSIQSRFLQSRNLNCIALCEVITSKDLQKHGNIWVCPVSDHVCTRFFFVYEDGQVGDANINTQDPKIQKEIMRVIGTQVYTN
Chain of PARP3 (Q9Y6F1 whole entry): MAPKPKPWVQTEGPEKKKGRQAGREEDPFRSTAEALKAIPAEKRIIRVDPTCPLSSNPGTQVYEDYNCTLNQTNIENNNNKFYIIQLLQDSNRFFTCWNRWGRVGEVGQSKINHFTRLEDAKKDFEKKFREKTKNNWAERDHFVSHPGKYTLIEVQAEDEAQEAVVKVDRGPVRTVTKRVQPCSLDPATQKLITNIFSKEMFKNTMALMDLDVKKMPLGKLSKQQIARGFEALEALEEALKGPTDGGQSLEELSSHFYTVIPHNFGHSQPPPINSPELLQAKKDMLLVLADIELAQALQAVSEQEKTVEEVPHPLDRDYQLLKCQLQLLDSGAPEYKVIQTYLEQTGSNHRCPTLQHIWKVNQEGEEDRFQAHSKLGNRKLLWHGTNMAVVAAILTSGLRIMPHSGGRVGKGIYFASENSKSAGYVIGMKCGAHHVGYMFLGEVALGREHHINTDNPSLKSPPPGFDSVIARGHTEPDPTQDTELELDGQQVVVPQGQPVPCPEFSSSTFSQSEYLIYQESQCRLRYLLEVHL
Chain of PARP2 (Q9UGN5 whole entry): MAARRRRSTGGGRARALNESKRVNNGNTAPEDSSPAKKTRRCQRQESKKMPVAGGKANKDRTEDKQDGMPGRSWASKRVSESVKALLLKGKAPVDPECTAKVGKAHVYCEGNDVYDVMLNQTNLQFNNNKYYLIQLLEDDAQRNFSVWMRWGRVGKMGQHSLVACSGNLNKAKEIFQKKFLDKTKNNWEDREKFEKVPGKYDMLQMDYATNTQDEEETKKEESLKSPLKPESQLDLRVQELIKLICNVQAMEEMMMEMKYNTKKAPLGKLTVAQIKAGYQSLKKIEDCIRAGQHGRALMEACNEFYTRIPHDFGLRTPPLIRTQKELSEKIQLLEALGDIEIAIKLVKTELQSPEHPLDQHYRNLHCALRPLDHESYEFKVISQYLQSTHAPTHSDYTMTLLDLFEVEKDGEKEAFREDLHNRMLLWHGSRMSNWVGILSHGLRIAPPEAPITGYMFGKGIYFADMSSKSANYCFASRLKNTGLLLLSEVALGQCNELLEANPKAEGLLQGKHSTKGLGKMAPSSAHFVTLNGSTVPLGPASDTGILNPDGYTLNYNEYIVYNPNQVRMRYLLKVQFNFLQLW
Chain of PARP1 (P09874 whole entry): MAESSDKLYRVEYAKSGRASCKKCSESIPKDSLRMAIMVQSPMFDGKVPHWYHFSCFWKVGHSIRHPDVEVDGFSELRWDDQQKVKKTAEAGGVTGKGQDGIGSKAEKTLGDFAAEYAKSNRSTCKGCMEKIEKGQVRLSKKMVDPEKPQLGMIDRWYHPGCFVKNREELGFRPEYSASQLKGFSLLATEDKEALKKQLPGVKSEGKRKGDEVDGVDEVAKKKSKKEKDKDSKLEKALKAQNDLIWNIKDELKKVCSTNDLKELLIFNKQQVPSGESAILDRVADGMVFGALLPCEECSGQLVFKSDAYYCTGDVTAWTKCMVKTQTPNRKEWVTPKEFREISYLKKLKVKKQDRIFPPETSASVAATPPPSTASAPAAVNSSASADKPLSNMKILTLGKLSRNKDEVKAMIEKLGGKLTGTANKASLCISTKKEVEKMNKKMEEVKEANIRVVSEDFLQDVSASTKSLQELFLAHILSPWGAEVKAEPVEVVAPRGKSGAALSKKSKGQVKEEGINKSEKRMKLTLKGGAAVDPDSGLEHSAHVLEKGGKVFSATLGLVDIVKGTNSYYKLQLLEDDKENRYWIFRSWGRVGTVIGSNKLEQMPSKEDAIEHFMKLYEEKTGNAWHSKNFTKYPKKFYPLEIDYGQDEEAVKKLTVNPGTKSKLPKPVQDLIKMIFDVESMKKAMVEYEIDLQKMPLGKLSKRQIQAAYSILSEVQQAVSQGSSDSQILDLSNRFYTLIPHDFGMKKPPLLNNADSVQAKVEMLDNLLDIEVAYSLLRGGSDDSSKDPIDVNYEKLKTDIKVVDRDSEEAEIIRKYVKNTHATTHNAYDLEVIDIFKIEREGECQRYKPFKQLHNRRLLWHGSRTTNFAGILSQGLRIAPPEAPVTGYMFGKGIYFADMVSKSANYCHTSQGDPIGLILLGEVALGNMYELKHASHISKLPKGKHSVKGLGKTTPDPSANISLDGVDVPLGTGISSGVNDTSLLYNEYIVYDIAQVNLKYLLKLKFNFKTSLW
Chain of PARP5a (O95271 1112-1317): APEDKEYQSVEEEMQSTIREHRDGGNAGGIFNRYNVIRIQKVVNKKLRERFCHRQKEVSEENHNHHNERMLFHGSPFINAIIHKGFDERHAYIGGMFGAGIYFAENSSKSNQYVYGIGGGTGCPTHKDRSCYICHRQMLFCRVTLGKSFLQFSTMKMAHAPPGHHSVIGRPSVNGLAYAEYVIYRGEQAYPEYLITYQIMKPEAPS
Procedure for MDR1 and BCRP: MDCKII cells expressing MDR1 and BCRP were seeded onto polyethylene membranes in 96-well Transwell insert systems at a density to form a confluent cell monolayer. […] The final percent volume of the organic solvent was less than 1%. Permeation of the test compounds from A to B direction and from B to A direction was determined over a 90-min incubation at 37° C. and 5% CO2 with a relative humidity of 95%. At the end of the incubation, samples from the apical and basolateral side were taken and then precipitated with cold acetonitrile containing internal standard. After centrifugation at 4000 rpm, the supernatant was diluted with 0.1% formic acid aqueous solution and quantified by LC-MS/MS. The integrity of the cell monolayers was confirmed by using the marker Lucifer yellow.
The permeability coefficient (1×10-6 cm/s) was calculated using the following equation
(1) The Efflux Ratio was Calculated Using the Following Equation
Efflux ratio=Papp(B to A)/Papp(A to B)
(2) where dCr/dt is the cumulative concentration of the compound in the receiver chamber as a function of time (in μM/s); Vr is the solution volume in the receiver chamber (0.1 ml on the apical side and 0.3 ml on the basolateral side); A is the surface area for the transport, that is, 0.11 cm2 for the area of the monolayer; and C0 is the initial concentration in the donor chamber (in μM).
Procedure for PARP1: Recombinant full length 6HIS tagged PARP1 protein was diluted to 6 nM with 50 mM Tris pH 8, 0.001% Triton X100, 10 mM MgCl2, 150 mM NaCl and incubated for four hours with an equivalent volume of 2 nM fluorescent probe diluted with 50 mM Tris pH 8, 0.001% Triton X100, 10 mM MgCl2, 150 mM NaCl. The final DMSO concentration of the probe was kept below 1% (v/v).
Procedure for PARP3: Recombinant full length PARP3 protein was diluted to 100 nM with 50 mM Tris pH 8, 0.001% Triton X100, 10 mM MgCl2, 150 mM NaCl and incubated for four hours with an equivalent volume of 6 nM fluorescent probe diluted with 50 mM Tris pH 8, 0.001% Triton X100, 10 mM MgCl2, 150 mM NaCl. The final DMSO concentration of the probe was kept below 1% (v/v).
Procedure for PARP5a: Recombinant PARP5a binding domain was diluted to 160 nM with 50 mM Tris pH 8, 0.001% Triton X100, 10 mM MgCl2, 150 mM NaCl and incubated for four hours with an equivalent volume of 6 nM fluorescent probe diluted with 50 mM Tris pH 8, 0.001% Triton X100, 10 mM MgCl2, 150 mM NaCl. The final DMSO concentration of the probe was kept below 1% (v/v).

In the case of `CNC(=O)c1ccc(N2CCN(Cc3ccc4nc(C)c(=O)[nH]c4c3C)CC2)c(Cl)n1` [Example 3, 6-chloro-5-[4-[(2,5-dimethyl-3-oxo-4H-quinoxalin-6-yl)methyl]piperazin-1-yl]-N-methyl-pyridine-2-carboxamide], the pIC50 at PARP3 is less than 4.00; on PARP6 it was less than 4.00; on PARP2 it was less than 4.00; at PARP1, 8.52; at PARP5a, less than 4.00. In addition, the efflux ratio at 90 min with MDR1 and BCRP is 1.3.
On PARP1, `CCc1nc2ccc(CN3CCN(c4ccc(C(=O)NC)nc4F)CC3)c(Cl)c2[nH]c1=O` [Example 9, 5-[4-[(5-chloro-2-ethyl-3-oxo-4H-quinoxalin-6-yl)methyl]piperazin-1-yl]-6-fluoro-N-methyl-pyridine-2-carboxamide] showed a negative-log IC50 (pIC50) of 8.40. In addition, the efflux ratio at 90 min with MDR1 and BCRP was found to be 0.4.
For `CNC(=O)c1ccc(N2CCN(Cc3ccc4nc(C(C)(F)F)c(=O)[nH]c4c3F)CC2)c(C)n1` [Example 19, 5-[4-[[2-(1,1-difluoroethyl)-5-fluoro-3-oxo-4H-quinoxalin-6-yl]methyl]piperazin-1-yl]-N,6-dimethyl-pyridine-2-carboxamide], the values for the negative-log IC50 (pIC50) at PARP2 and at PARP1 were 4.40 and 7.89, respectively. For the same molecule, the efflux ratio at 90 min with MDR1 and BCRP amounted to 2.4.
As to `CNC(=O)c1ccc(N2CCN(Cc3ccc4nc(C)c(=O)[nH]c4c3F)CC2)c(C(F)F)n1` [Example 21, 6-(difluoromethyl)-5-[4-[(5-fluoro-2-methyl-3-oxo-4H-quinoxalin-6-yl)methyl]piperazin-1-yl]-N-methyl-pyridine-2-carboxamide], the pIC50 on PARP3 was 5.24; on PARP6 it was less than 4.00; at PARP2 it was less than 4.00; at PARP1, 8.15; on PARP5a it was less than 4.00. In addition, the efflux ratio at 90 min with MDR1 and BCRP stood at 1.6.
Regarding `CCc1nc2ccc(CN3CCN(c4ccc(C(=O)NC)nc4C(F)F)CC3)c(F)c2[nH]c1=O` [Example 24, 6-(difluoromethyl)-5-[4-[(2-ethyl-5-fluoro-3-oxo-4H-quinoxalin-6-yl)methyl]piperazin-1-yl]-N-methyl-pyridine-2-carboxamide], the pIC50 on PARP3 was less than 4.00; at PARP6, less than 4.00; on PARP2, less than 4.09; on PARP1, 8.22; at PARP5a, less than 4.00. In addition, the efflux ratio at 90 min in the data set with MDR1 and BCRP was found to be 1.1.
As for `CCc1nc2ccc(CN3CCN(c4ccc(C(=O)NC)nc4Cl)CC3)c(F)c2[nH]c1=O` [Example 28, 6-chloro-5-[4-[(2-ethyl-5-fluoro-3-oxo-4H-quinoxalin-6-yl)methyl]piperazin-1-yl]-N-methyl-pyridine-2-carboxamide], the pIC50 is less than 4.00 at PARP3; less than 4.00 at PARP6; less than 4.00 at PARP2; 8.30 on PARP1; less than 4.00 at PARP5a. Further, the efflux ratio at 90 min in the data set with MDR1 and BCRP turned out to be 0.8.
Regarding `CNC(=O)c1ccc(N2CCN(Cc3ccc4nc(C)c(=O)[nH]c4c3F)CC2)c(Cl)n1` [Example 30, 6-chloro-5-[4-[(5-fluoro-2-methyl-3-oxo-4H-quinoxalin-6-yl)methyl]piperazin-1-yl]-N-methyl-pyridine-2-carboxamide], the pIC50 at PARP3 was less than 4.00; at PARP6, less than 4.00; at PARP2, less than 4.00; at PARP1, 8.22; on PARP5a it was less than 4.00. In the data set on MDR1 and BCRP, the efflux ratio at 90 min is 1.8.
With `CNC(=O)c1ccc(N2CCN(Cc3ccc4nc(C)c(=O)[nH]c4c3F)CC2)cn1` [Example 32, 5-[4-[(5-fluoro-2-methyl-3-oxo-4H-quinoxalin-6-yl)methyl]piperazin-1-yl]-N-methyl-pyridine-2-carboxamide], the pIC50 on PARP3 is less than 4.00; at PARP6, less than 4.00; at PARP2 it was less than 4.00; on PARP1 it was 8.15; on PARP5a, less than 4.00.
As to `CNC(=O)c1ccc(N2CCN(Cc3ccc4nc(C(F)F)c(=O)[nH]c4c3F)CC2)c(C)n1` [Example 37, 5-[4-[[2-(difluoromethyl)-5-fluoro-3-oxo-4H-quinoxalin-6-yl]methyl]piperazin-1-yl]-N,6-dimethyl-pyridine-2-carboxamide], the pIC50 at PARP2 is 4.24; on PARP1, 7.59. Also, the efflux ratio at 90 min in the data set on MDR1 and BCRP came to 5.
As to `CNC(=O)c1ccc(N2CCN(Cc3ccc4nc(OC)c(=O)[nH]c4c3F)CC2)cn1` [Example 38, 5-[4-[(5-fluoro-2-methoxy-3-oxo-4H-quinoxalin-6-yl)methyl]piperazin-1-yl]-N-methyl-pyridine-2-carboxamide], the negative-log IC50 (pIC50) at PARP3 is less than 4.00; on PARP6 it was less than 4.00; at PARP2, 4.68; on PARP1 it was 7.92; at PARP5a, less than 4.00.
For `CNC(=O)c1ccc(N2CCN(Cc3ccc4nc(OC)c(=O)[nH]c4c3F)CC2)c(F)n1` [Example 39, 6-fluoro-5-[4-[(5-fluoro-2-methoxy-3-oxo-4H-quinoxalin-6-yl)methyl]piperazin-1-yl]-N-methyl-pyridine-2-carboxamide], the negative-log IC50 (pIC50) was less than 4.00 on PARP3; less than 4.00 on PARP6; less than 4.00 at PARP2; 8.22 on PARP1; less than 4.00 on PARP5a. In addition, the efflux ratio at 90 min in the data set on MDR1 and BCRP was determined as 1.9.
With `CNC(=O)c1ccc(N2CCN(Cc3ccc4nc(OC)c(=O)[nH]c4c3F)CC2)c(C)n1` [Example 40, 5-[4-[(5-fluoro-2-methoxy-3-oxo-4H-quinoxalin-6-yl)methyl]piperazin-1-yl]-N,6-dimethyl-pyridine-2-carboxamide], the negative-log IC50 (pIC50) at PARP3 was less than 4.00; on PARP6 it was less than 4.00; on PARP2, less than 4.00; on PARP1 it was 7.96; on PARP5a, 4.89. Besides, the efflux ratio at 90 min in the data set on MDR1 and BCRP amounted to 2.
As for `CNC(=O)c1ccc(N2CCN(Cc3ccc4nc(OC)c(=O)[nH]c4c3F)CC2)c(Cl)n1` [Example 41, 6-chloro-5-[4-[(5-fluoro-2-methoxy-3-oxo-4H-quinoxalin-6-yl)methyl]piperazin-1-yl]-N-methyl-pyridine-2-carboxamide], the pIC50 on PARP3 is less than 4.00; on PARP6, less than 4.00; at PARP2, less than 4.00; on PARP1, 8.30; at PARP5a, less than 4.00. Further, the efflux ratio at 90 min in the data set on MDR1 and BCRP came out at 2.4.
For the molecule `CCNC(=O)c1ccc(N2CCN(Cc3ccc4nc(C)c(=O)[nH]c4c3F)CC2)c(F)n1` [Example 45, N-ethyl-6-fluoro-5-[4-[(5-fluoro-2-methyl-3-oxo-4H-quinoxalin-6-yl)methyl]piperazin-1-yl]pyridine-2-carboxamide], the pIC50 at PARP2 is less than 4.00; on PARP1, 8.22. In addition, the efflux ratio at 90 min with MDR1 and BCRP was 1.5.
In the case of `CNC(=O)c1ccc(N2CCN(Cc3ccc4nc(C(F)(F)F)c(=O)[nH]c4c3F)CC2)c(C)n1` [Example 47, 5-[4-[[5-fluoro-3-oxo-2-(trifluoromethyl)-4H-quinoxalin-6-yl]methyl]piperazin-1-yl]-N,6-dimethyl-pyridine-2-carboxamide], the negative-log IC50 (pIC50) at PARP3 was less than 4.00; on PARP6, less than 4.00; on PARP2, less than 4.00; at PARP1, 7.12; on PARP5a it was less than 4.00.
For the molecule `CNC(=O)c1ccc(N2CCN(Cc3ccc4nc(C(F)(F)F)c(=O)[nH]c4c3F)CC2)c(F)n1` [Example 48, 6-fluoro-5-[4-[[5-fluoro-3-oxo-2-(trifluoromethyl)-4H-quinoxalin-6-yl]methyl]piperazin-1-yl]-N-methyl-pyridine-2-carboxamide], the pIC50 on PARP3 was less than 4.00; on PARP6, less than 4.00; on PARP2 it was 4.59; at PARP1, 7.41; on PARP5a, less than 4.00. Moreover, the efflux ratio at 90 min in the data set on MDR1 and BCRP worked out at 8.8.
Regarding `CNC(=O)c1ccc(N2CCN(Cc3ccc4nc(C(F)(F)F)c(=O)[nH]c4c3F)CC2)c(Cl)n1` [Example 49, 6-chloro-5-[4-[[5-fluoro-3-oxo-2-(trifluoromethyl)-4H-quinoxalin-6-yl]methyl]piperazin-1-yl]-N-methyl-pyridine-2-carboxamide], the negative logarithm of the IC50 (pIC50) at PARP3 is less than 4.54; at PARP6, less than 4.00; on PARP2 it was 4.96; on PARP1 it was 7.37; on PARP5a, less than 4.00.
As for `CNC(=O)c1ccc(N2CCN(Cc3ccc4nc(C)c(=O)[nH]c4c3C)CC2)c(C(F)F)n1` [Example 60, 6-(difluoromethyl)-5-[4-[(2,5-dimethyl-3-oxo-4H-quinoxalin-6-yl)methyl]piperazin-1-yl]-N-methyl-pyridine-2-carboxamide], the negative logarithm of the IC50 (pIC50) is less than 4.00 on PARP2 and 7.64 on PARP1.
